Calls of active or inactive are those of the source.
Columns and labels:
[1] = target: Mu-type opioid receptor (Homo sapiens, UniProt P35372); type: functional, cell-based;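 note: U2OS cells with beta-arrestin recruitment to OPRM1 by beta-gal complementation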
[2] = target: 5-hydroxytryptamine receptor 2A (Mus musculus, UniProt P35363); type: functional, cell-based;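 note: CHO-K1 cells with tagged receptor and beta-arrestin; agonist potency measured as compound-induced activation of the receptor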
[3] = target: Prothrombin (Homo sapiens, UniProt P00734); experiment: Thrombin 1536 HTS Dose Response Confirmation. [Related pubchem assays: 1046 (Thrombin 1536 HTS; hits were confirmed in this assay)]; type: functional
[4] = inhibition of ADAM10 peptide cleavage – biochemical, FRET peptide substrate, recombinant human ADAM10, selectivity assay for ADAM17 exosite inhibitor project, dose response (AID 743259);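 note: ADAM10 enzyme cleaving a FRET peptide substrate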
[5] = Luminescence Cell-Based Dose Retest to Confirm Inhibitors of Cancer Stem Cells. [Related pubchem assays (depositor defined):AID2717, AID2721]; type: functional; details: Homo sapiens
[6] = target: T1, DNA repair protein RAD52 homolog (Homo sapiens, UniProt P43351); type: functional, biochemical
T1 sequence (P43351 whole entry): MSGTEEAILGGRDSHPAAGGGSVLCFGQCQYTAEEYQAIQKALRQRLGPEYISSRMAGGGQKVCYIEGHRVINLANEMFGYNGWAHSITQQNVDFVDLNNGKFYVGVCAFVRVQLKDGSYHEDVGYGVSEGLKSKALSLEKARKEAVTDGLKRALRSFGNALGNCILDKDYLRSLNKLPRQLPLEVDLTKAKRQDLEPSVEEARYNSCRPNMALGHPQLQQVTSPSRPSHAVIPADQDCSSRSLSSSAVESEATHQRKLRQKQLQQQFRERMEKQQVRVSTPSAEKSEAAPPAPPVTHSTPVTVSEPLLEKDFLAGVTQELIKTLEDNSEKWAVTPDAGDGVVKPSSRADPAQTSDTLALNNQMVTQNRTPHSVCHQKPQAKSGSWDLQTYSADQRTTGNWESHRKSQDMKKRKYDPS

[7] = intracellular Trypanosoma cruzi inhibitors in host cells – cell-based, plate reader, cherry-pick samples, set 3, dose response (AID 651818); type: functional;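 note: compounds incubated with infected cells for about four days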
[8] = blockers of HIV-1 envelope-mediated cell-cell fusion – cherry-pick, dose response (AID 652057); type: functional, cell-based
[9] = viability loss in CEM21 cells – cell-based, CellTiter-Glo luminescence, cherry-picked, cytotoxicity control for viral fusion inhibitor project, dose response (AID 652042); type: functional;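 note: potency for signal decrease meaning cytotoxicity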
[10] = blockers of HIV-1 ZM109 envelope-driven cell-cell fusion – HeLa effector, CEM target cells, luciferase, cherry-pick, dose response (AID 652058); type: functional, cell-based;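 note: luciferase signal from HIV-1 Env mediated cell-cell fusion of effector and target cells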
[11] = target: Disintegrin and metalloproteinase domain-containing protein 17 (Homo sapiens, UniProt P78536); experiment: exosite inhibitors of ADAM17, dose response, biochemical (AID 743260)
[12] = tested on: Streptococcus sp. 'group A'; experiment: Streptococcus pyogenes SK(-)GAS viability under kanamycin – luminescence, BacTiterGlo, confirmation, counter-screen for streptokinase expression inhibitor project, dose response (AID 1900); type: functional, organism-based
[13] = target: T2, Heat shock factor protein 1 (Mus musculus, UniProt P38532); experiment: decrease of HSF1-responsive luciferase luminescence – cell-based, NIH3T3, dose retest, confirmation (AID 2382); type: functional;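 note: NIH3T3 fibroblasts with HSF1-driven luciferase reporter stressed by proteasome inhibitor MG132; luminescence from HSF1-driven luciferase expression after 8 hours of MG132 stress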
T2 sequence (P38532 whole entry): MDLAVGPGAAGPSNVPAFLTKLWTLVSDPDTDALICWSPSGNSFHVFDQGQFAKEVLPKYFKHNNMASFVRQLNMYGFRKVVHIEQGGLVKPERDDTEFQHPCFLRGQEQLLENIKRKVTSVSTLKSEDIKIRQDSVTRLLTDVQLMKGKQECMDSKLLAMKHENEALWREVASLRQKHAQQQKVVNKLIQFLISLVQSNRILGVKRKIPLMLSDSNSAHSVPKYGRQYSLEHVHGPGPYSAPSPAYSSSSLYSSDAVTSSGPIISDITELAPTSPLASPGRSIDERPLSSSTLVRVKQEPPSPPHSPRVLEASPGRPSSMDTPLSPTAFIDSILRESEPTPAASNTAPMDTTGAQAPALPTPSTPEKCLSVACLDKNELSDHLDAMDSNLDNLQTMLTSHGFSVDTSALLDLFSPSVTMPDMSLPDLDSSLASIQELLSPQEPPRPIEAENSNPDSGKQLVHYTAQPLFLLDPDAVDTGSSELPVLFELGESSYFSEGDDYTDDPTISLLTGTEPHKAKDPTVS

[14] = target: T3, Streptokinase A (Streptococcus pyogenes serotype M1, UniProt P10520); experiment: viability-normalized secreted streptokinase activity reduction – plasminogen activation absorbance, OD405, dose response (AID 1914); type: functional, Streptococcus pyogenes M1 GAS;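 note: secreted streptokinase activity via plasminogen activation per viability signal from cell pellet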
T3 sequence (P10520 whole entry): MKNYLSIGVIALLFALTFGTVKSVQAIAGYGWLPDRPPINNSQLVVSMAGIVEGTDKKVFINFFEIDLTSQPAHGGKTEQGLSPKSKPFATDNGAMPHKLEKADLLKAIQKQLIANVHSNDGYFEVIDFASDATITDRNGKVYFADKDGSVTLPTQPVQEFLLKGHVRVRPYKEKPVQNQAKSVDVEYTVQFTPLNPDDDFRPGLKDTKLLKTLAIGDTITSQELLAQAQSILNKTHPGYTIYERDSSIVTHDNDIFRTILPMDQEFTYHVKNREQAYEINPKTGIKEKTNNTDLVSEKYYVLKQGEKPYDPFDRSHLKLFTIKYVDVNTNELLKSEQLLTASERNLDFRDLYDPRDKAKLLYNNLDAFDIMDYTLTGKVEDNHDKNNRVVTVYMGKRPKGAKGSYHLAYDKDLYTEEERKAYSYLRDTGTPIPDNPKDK

[15] = Trypanosoma cruzi growth suppression in host cells – NIH3T3 host cells, beta-gal luminescence, confirmation (AID 2044); type: functional, cell-based;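 note: intracellular parasites grown in NIH/3T3 mouse fibroblasts as host cells; luminescent beta-galactosidase reporter signal from transgenic T. cruzi replicating inside host cells; inhibitors lower the luminescence signal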
[16] = NIH3T3 cell viability loss – ATP luminescence, mouse fibroblasts, counter-screen, dose response (AID 2010); type: functional, cell-based;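 note: cells exposed to compound for about 90 hours before reading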
[17] = tested on: Streptococcus; experiment: GAS UMAA2166 growth inhibition – luminescence, BacTiterGlo, counter-screen for streptokinase expression inhibitor project, dose response (AID 1915); type: functional, organism-based;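 note: potency for reduction of bacterial viability or growth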
[18] = luciferase reporter signal suppression in cells – H4 neuroglioma cells, luminescence, dose response (AID 1990); type: functional, cell-based
[19] = Luminescence Cell-Based Dose Response HTS to Identify Inhibitors of 5'UTR Stem-Loop Driven Prion Protein mRNA Translation in H4 Neuroglioblastoma Cells. [Related pubchem assays: 1827 (Project Summary), 1813 (Primary HTS)]; type: functional
[20] = alpha-synuclein stem-loop luciferase translation blockers – H4 neuroglioma cells, luminescence, confirmation (AID 1988); type: functional, cell-based
[21] = target: T4, Corticotropin-releasing factor receptor 2/Corticotropin-releasing factor-binding protein (Homo sapiens, UniProt P24387+Q13324); experiment: Dose Response confirmation of uHTS hits for small molecule antagonists of the CRF-binding protein and CRF-R2 receptor complex.; type: functional; details: read-out: IC50_Mean
T4 sequence (Q13324 whole entry): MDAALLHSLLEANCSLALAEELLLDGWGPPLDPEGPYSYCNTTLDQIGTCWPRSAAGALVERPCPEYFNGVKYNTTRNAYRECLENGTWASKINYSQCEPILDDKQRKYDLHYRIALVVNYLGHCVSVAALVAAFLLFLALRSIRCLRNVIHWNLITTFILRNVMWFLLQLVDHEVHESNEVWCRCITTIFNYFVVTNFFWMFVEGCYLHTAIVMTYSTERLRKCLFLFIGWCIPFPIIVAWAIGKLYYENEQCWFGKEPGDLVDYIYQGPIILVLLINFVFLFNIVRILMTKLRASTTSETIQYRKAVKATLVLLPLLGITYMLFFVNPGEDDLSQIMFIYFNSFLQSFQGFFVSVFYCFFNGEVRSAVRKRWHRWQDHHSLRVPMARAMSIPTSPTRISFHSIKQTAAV
T4 sequence (P24387 whole entry): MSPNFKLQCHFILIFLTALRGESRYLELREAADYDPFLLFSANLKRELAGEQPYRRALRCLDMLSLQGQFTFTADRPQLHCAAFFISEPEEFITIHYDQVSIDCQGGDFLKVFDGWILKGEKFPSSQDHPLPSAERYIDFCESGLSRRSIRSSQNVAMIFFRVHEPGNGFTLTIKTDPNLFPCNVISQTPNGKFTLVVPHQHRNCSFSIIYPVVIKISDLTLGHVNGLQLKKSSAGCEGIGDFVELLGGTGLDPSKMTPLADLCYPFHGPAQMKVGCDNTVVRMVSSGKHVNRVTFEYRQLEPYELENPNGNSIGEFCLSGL

[22] = target: T4, Corticotropin-releasing factor receptor 2/Corticotropin-releasing factor-binding protein; experiment: activators of CRF receptor 2 with binding protein – uHTS hits, confirmation (AID 602473); type: functional; details: read-out: EC50_Mean
[23] = HIV-1 AD8 envelope cell-cell fusion blockers – cherry-pick, dose response (AID 652062); type: functional, cell-based;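 note: luciferase signal from cell-cell fusion driven by HIV-1 clade B AD8 Env; potency is for inhibitors of fusion seen as a drop in luminescence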

Mu-type opioid receptor, sequence (P35372 whole entry): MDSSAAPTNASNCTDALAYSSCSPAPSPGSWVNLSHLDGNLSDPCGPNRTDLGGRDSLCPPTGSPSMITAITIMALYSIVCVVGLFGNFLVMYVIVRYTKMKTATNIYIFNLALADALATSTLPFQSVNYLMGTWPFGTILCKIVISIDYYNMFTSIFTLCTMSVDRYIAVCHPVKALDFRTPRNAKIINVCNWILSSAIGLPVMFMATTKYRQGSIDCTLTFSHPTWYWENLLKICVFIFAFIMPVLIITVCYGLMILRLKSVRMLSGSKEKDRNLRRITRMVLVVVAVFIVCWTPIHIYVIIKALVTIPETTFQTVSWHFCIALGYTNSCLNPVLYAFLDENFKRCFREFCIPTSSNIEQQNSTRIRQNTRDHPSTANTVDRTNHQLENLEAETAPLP
Disintegrin and metalloproteinase domain-containing protein 17, sequence (P78536 whole entry, the tested form may be a part): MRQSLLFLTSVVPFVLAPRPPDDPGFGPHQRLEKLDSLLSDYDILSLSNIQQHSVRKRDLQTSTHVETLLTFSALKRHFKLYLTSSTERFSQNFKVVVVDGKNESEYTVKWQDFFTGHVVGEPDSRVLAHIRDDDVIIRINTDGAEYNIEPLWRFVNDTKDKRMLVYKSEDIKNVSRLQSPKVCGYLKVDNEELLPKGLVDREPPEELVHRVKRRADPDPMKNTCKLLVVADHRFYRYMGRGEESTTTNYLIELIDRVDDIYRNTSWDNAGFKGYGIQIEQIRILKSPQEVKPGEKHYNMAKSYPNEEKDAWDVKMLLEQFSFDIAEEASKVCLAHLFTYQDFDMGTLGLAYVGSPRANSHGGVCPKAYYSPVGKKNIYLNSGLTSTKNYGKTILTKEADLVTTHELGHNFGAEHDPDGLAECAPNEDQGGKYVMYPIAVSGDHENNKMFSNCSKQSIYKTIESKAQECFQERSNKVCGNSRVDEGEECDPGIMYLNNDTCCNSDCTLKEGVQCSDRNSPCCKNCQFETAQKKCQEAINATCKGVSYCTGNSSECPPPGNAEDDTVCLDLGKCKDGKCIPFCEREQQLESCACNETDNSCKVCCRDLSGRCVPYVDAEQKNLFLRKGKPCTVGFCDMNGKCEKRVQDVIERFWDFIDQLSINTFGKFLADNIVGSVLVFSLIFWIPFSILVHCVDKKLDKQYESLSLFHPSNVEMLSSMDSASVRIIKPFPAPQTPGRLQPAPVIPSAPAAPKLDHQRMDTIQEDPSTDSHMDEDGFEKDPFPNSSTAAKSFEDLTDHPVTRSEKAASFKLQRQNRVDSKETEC
5-hydroxytryptamine receptor 2A, sequence (P35363 whole entry): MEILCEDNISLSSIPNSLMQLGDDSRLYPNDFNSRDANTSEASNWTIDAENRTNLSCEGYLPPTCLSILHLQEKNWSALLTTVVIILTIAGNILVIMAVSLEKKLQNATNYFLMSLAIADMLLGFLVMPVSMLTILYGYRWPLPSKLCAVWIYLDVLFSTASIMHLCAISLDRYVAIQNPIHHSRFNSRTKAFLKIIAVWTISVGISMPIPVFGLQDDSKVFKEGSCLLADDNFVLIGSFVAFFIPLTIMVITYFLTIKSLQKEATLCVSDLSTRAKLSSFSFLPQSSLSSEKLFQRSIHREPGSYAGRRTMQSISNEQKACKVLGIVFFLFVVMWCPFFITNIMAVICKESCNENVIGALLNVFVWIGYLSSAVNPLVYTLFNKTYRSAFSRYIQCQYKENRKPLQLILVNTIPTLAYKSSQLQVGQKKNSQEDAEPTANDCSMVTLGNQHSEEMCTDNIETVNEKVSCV

SMILES: CN(C)S(=O)(=O)c1ccc(Cl)c(NC(=O)CN2CCc3ccccc3C2)c1
- EC50 [1]: 92.5 µM (inactive)
- EC50 [2]: 1.75 µM (active)

SMILES: COc1cccc2cc(C(=O)NCC3CCCO3)c(=O)oc12 (stereo not given)
- IC50 [3]: > 50 µM (not active)

SMILES: COc1cc(OC)cc(-c2c[nH]nc2N)c1
- IC50 [4]: > 69.5 µM (inactive)

SMILES: CN(C)CCCn1c(=S)[nH]c2sc3c(c2c1=O)CCCC3
- AC50 [5]: > 195 µM (inactive)
- AC50 [6]: 5.83 µM (active)

SMILES: C[C@@H]1CN([C@@H](C)CO)C(=O)c2cccc(NS(=O)(=O)c3ccc(F)cc3)c2O[C@@H]1CN(C)Cc1ccc(-c2ccccc2)cc1
- AC50 [7]: 3.81 µM (active)
- AC50 [8]: 22.4 µM (active)
- AC50 [9]: 48.1 µM (active)
- AC50 [10]: 26.5 µM (active)

SMILES: COc1cc(OC)cc(-c2cn[nH]c2N)c1
- IC50 [11]: > 69.5 µM (inactive)

SMILES: Cc1ccc2nc(N(CCCN(C)C)C(=O)c3ccc(S(=O)(=O)N4CCCCCC4)cc3)sc2c1
- EC50 [12]: > 150 µM (not active)
- EC50 [13]: 109 µM (active)
- EC50 [14]: > 150 µM (not active)
- EC50 [15]: 0.125 µM (active)
- EC50 [16]: > 60 µM (not active)
- EC50 [17]: > 150 µM (not active)
- AC50 [6]: 30.7 µM (active)

SMILES: COC(=O)c1ccc(C(=O)NC2CCCc3c2cnn3-c2ccc(C)c(C)c2)cc1 (stereo not given)
- EC50 [18]: 8.89 µM (inconclusive)
- EC50 [19]: > 120 µM (not active)
- EC50 [20]: 0.997 µM (active)
- IC50 [21]: > 47.1 µM (inactive)
- EC50 [22]: > 53 µM (inactive)
- AC50 [9]: 19.4 µM (active)
- AC50 [23]: 18.9 µM (active)

— ChEMBL document CHEMBL1201862, “PubChem BioAssay data set” (2004)
